Measurements as given in patent US10265274B2, “Formulations and kits for forming bioadhesive matrices” (Technology Innovation Momentum Fund (Israel) Limited …, priority 2012, dated 2019).
Where a name gives a salt, the structure may show the parent alone.

Assays:
[1] = cited from earlier work
Fibroblast cells = assay: Cytotoxicity test, Alamar Blue reduction; assay type: cell-based; details: fibroblasts, 24 hours, relative to control cells
Experimental: Fibroblast cells (14th passage) were thawed and cultured in […] flasks with culture medium at 37° C., humidified atmosphere and 5% CO2. The cells were cultured with modified Eagle's medium supplemented with 10% fetal bovine serum, 1% L-glutamine and 0.1% penicillin-streptomycin-nystatin. At confluence of 70% (at passages 16-19) the cells were separated using incubation for 3 minutes with 1 ml trypsin A, the free cells were added to the culture medium and seeded in a 6 well plate.
When confluence of 70% was reached the medium was replaced by 2 ml of medium containing 10% v/v Alamar blue for 4 hours of incubation. Thereafter, two 100 μL samples were taken from each well and inserted to a 96 well plate. The plate was inserted for analysis at a spectrophotometer (Spectra max 340 PC384, Molecular Devices) at 570 and 600 nm.
Two experiments were carried out, at first each component of the bioadhesive were inserted separately to a test tube containing 4 ml medium and incubated for 24 hours and then that medium was added to the cells instead of the medium containing Alamar Blue. In the second experiment, the medium with Alamar Blue was replaced with 4 ml of fresh medium and 0.1 ml of bioadhesive was added to the medium and incubated for 24 hours followed by another reading using Alamar Blue.
The reduction of Alamar Blue's absorption was calculated using the manufacturer's protocol, namely Alamar Blue reduction=(ε600A^t570−ε570A^t600)/(ε570A^c600−ε600A^c570), wherein ε570 and ε600 are the molar extinction coefficients of oxidized Alamar Blue at 570 nm and 600 nm respectively, A^t and Ac are the absorbance of test and control respectively at 570 nm and 600 nm respectively, whereas the control is taken as the medium with Alamar blue but without any cells.

CCCCN1CCCCC1C(=O)Nc1c(C)cccc1C (centres unmarked) [bupivacaine, Bupivacaine hydrochloride]
isoelectric points (pKa) [1]: 8.1-8.4 | cell viability (Fibroblast cells; aqueous drug solution 2% w/v): 67.6% | cell viability (Fibroblast cells; aqueous drug solution 3% w/v): 58.8%

CC(C)Cc1ccc(C(C)C(=O)[O-])cc1.[Na+] (centres unmarked) [ibuprofen, Ibuprofen sodium salt]
cell viability (Fibroblast cells; aqueous drug solution 2% w/v): 93.5% | cell viability (Fibroblast cells; aqueous drug solution 3% w/v): 79.7%
